Source: patent US12371416B2, “Compounds for inhibition of fibroblast activation protein” (USTAV ORGANICKE CHEMIE A BIOCHEMIE AV CR, V. V. I., priority 2020, dated 2025)
“Also recorded” adds a separate entry of the source.

Assays:
[1] = Stability in murine plasma; assay type: in vitro ADME; details: 37° C., up to 120 minutes
Method: (§1) An aliquot of plasma was extracted with 120 μl of methanol containing caffeine as an internal standard. The solution was vortexed (5 min) and centrifuged (20500 g; 10 min), the supernatant was transferred to a vial, and 1 μl of the mixture was used for LC-MS analysis. […] Results are presented as the percentage of test substance versus control (aliquot taken at time 0).

CCRF-CEM = assay: Cytotoxicity (XTT) on CCRF-CEM cells; assay type: cell-based, human; details: 72 h
Method: (§2) The cytotoxicity of the substances was measured on four tumour cell lines: CCRF-CEM, HepG2, Hela, HL-60. All cell lines were purchased from ATCC (Manassas, VA, USA). Cells were cultured in RPMI-1640 or DMEM medium containing 10% (wt/wt) FBS and 1% (wt/wt) GlutaMax. Cells were distributed at 2,000-10,000 per well of a 384-well plate (Thermo Fisher Scientific, Waltham, USA) and incubated overnight. After 24 hours, test substance solutions (10 or 100 μmol·l^−1) were added to the wells and the cells were incubated with the test substances at 37° C. and 5% (vol./vol.) CO2 for another 72 h. XTT dye (XTT cell proliferation kit II, Roche Diagnostics GmbH, Mannheim, Germany) was added to the wells according to the manufacturer's protocol. After one hour of incubation with the dye, the absorbance at 495 nm was measured and the signal was compared with the control (100% viability=cells without test substance).

HepG2 = assay: Cytotoxicity (XTT) on HepG2 cells; assay type: cell-based, human; details: 72 h
Method: as §2

DPPIV = biological target: T1, DPPIV (Homo sapiens, UniProt P27487); assay: Inhibitory activity against human recombinant DPPIV (IC50); assay type: biochemical; details: selected substances
T1 construct: purchased R&D Systems 9168-SE-010
Method: (§3) Data were analysed by nonlinear regression with GraphPrism (version 8.3.1). The measurement results are given as values of the mean inhibitory concentration IC50 and its linearized form via the negative decimal logarithm of pIC50.

[2] = tested on: four human tumour cell lines; assay: Cytotoxicity on four human tumour cell lines (summary statement); assay type: cell-based; details: two concentrations differing by 1 order of magnitude
Method: as §2

[3] = Stability in murine microsomes; assay type: in vitro ADME; details: murine microsomes 0.5 mg/ml, 5 μmol·l^−1 test substance, NADPH
Method: The incubation of 37.5 μl of the mixture was terminated by the addition of 150 μl of acetonitrile containing caffeine as an internal standard, cooled to 0° C. The mixture was vortexed (5 min) and centrifuged (20500 g; 10 min). The supernatant was transferred to a vial, and 1 μl of the mixture was used for LC-MS analysis. […] Results are presented as the percentage of test substance versus control (aliquot taken at time 0).

Hela = assay: Cytotoxicity (XTT) on Hela cells; assay type: cell-based, human; details: 72 h
Method: as §2

PREP = biological target: T2, PREP (Homo sapiens, UniProt P48147); assay: Inhibitory activity against human recombinant PREP (IC50); assay type: biochemical; details: selected substances
T2 construct: purchased R&D Systems 4308-SE-010
T2 sequence (P48147 1-710): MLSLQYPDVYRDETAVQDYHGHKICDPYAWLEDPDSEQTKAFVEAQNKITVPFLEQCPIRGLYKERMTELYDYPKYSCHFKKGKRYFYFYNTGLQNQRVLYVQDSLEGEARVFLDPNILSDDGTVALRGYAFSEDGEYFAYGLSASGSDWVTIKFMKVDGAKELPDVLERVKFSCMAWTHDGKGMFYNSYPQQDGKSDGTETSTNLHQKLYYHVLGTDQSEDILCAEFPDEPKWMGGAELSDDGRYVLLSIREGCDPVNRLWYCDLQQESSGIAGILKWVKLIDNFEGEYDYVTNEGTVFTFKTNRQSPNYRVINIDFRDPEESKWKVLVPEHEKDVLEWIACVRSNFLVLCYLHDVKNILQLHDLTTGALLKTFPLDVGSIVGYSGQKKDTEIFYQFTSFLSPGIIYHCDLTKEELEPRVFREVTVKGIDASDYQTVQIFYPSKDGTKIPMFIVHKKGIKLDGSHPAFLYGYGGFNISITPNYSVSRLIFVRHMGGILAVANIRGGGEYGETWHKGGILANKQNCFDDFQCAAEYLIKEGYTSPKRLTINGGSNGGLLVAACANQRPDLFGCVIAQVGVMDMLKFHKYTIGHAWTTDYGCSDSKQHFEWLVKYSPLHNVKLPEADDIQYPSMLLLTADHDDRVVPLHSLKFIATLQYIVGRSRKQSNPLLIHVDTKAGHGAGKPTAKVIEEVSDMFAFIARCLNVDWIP
Method: as §3

HL-60 = assay: Cytotoxicity (XTT) on HL-60 cells; assay type: cell-based, human; details: 72 h
Method: as §2

[4] = Stability in human plasma; assay type: in vitro ADME; details: 37° C., up to 120 minutes
Method: as §1

T1 sequence (P27487 whole entry): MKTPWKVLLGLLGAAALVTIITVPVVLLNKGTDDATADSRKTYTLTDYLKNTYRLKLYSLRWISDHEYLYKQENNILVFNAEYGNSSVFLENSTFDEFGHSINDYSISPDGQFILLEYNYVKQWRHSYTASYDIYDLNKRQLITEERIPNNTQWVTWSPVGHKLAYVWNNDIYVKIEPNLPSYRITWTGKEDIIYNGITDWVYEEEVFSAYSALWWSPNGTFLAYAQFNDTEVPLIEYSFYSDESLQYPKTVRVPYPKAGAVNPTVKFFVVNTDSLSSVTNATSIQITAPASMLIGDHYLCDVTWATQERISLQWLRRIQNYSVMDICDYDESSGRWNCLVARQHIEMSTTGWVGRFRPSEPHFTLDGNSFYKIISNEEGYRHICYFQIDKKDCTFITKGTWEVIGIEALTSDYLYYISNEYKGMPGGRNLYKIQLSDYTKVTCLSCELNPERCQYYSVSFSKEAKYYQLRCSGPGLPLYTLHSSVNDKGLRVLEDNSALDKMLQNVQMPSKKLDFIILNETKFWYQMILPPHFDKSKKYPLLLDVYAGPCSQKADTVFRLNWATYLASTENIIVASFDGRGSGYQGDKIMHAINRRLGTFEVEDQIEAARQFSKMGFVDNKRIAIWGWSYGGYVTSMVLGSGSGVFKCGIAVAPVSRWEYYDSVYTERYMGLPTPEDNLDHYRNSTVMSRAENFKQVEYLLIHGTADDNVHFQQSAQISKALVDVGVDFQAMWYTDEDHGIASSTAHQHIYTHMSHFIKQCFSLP

For COc1ccc(CNC(=O)C(=O)[C@@H]2CCCN2C(=O)CNC(=O)c2ccnc3ccccc23)cc1OC [Compound 3b, (S)—N-(2-(2-(2-((3,4-Dimethoxybenzyl)amino)-2-oxoacetyl)pyrrolidin-1-yl)-2-oxoethyl)quinoline-4-carboxamide], the “Stability in murine plasma” value [1] was “stable; also recorded: high stability”, the “Cell viability CEM 10 μM” value (CCRF-CEM; 10 μM) was 106 % vs. control and the “Cell viability CEM 100 μM” value (CCRF-CEM; 100 μM) was 88 % vs. control. The “Cell viability HepG2 10 μM” value (HepG2; 10 μM) was 97 % vs. control, the “Cell viability HepG2 100 μM” value (HepG2; 100 μM) was 92 % vs. control and the IC50 (DPPIV) was > 4000 nM. The “Cytotoxicity” value [2] was “low cytotoxicity”, the “Stability in murine microsomes” value [3] was “stable; also recorded: high stability” and the “Cell viability HeLa S3 10 μM” value (Hela; 10 μM) was 106 % vs. control. The “Cell viability HeLa S3 100 μM” value (Hela; 100 μM) was 78 % vs. control, the IC50 (PREP) was 0.4 nM and the “Cell viability HL60 10 μM” value (HL-60; 10 μM) was 88 % vs. control. The “Cell viability HL60 100 μM” value (HL-60; 100 μM) was 100 % vs. control and the “Stability in human plasma” value [4] was “stable; also recorded: excellent stability”.
